The test system of this assay is mice with LPS-induced ALI. Type of assay: in vivo.

Experimental: In a lipopolysaccharide (LPS) mouse model of ALI, LPS administered to the lungs of healthy mice induces rapid recruitment of neutrophils into the lungs.
Poly-A microspheres were injected into the tail vein of mice with LPS-induced ALI at 30 mg/kg.
Male BALB/c or C57BL/6J mice were anesthetized with inhaled isoflurane, and given 50 μL of 0.4 mg/mL LPS orotracheally to induce lung inflammation. Particles (2×10^8 in 100 μL PBS per mouse) were injected at either 2 hrs or 6 hrs post-instillation via tail vein catheter. Methods of euthanasia and sample processing are shared with the P. Aeruginosa model (below) except instead of cytospin BALF, cells were stained with CD45, CD11b, and Ly6G, and were fixed overnight before flow cytometry to determine the % of neutrophils and macrophages in each sample.

Take `CC(=O)Oc1ccccc1C(=O)O` [aspirin]: for the setting “LPS-ALI mice”, the “BALF concentration of KC” value is “not” and the “BALF concentration of MIP2” value is given as “not”. In addition, for the setting “tail vein injection 1 hr after LPS, Poly-A 30 mg/kg, aspirin in DMSO”, the “BALF neutrophil count compared to ALI mice with no particles” value is “did not reduce”.

The record behind these values is US12296048B2, “Polymer particles for neutrophil injury” (THE REGENTS OF THE UNIVERSITY OF MICHIGAN, priority 2019, dated 2025).
